Laboratory results published in article PMC12811997 (Chemmedchem, 2025).
Values after ≈ are worked out from the molar mass of the structure shown. Counter-ions that a name gives are not always drawn. Like-named read-outs stand apart in the source and are kept apart here.

What was measured:
[1] = target: T1, SARS‐CoV‐2 RdRp complex (nsp12, nsp7, nsp8) (Severe acute respiratory syndrome coronavirus 2, UniProt P0DTD1); design: method as in PMID 39140451; details: at 10 μM concentration of screened compound; ref [10]; cited from earlier work
[2] = target: T1, SARS‐CoV‐2 RdRp complex (nsp12, nsp7, nsp8); assay: biochemical; assay type: biochemical; details: for remaining activity at 10 µM: read-out: RA ± SD (residual activity of RdRp), at 10 μM concentration of screened compounds, AUC with compound / AUC of noninhibited reaction
in vitro = details: human
Protocol: Cytotoxicity was evaluated by incubating the same two‐fold serial dilutions of each compound with Calu‐3 cells as above but without the virus. Following 3 days of incubation at 37 °C in 5% CO2, the cell viability was determined by the addition of XTT solution as above. The compound cytotoxic concentrations resulting in a 50% reduction of absorbance (CC50) were calculated from plots of the percentage of absorbance versus log10 of drug concentration as above.

SARS‐CoV‐2 = assay: microbe, parasite or virus in culture; assay type: cell-based
Kinetic solubility = details: for kinetic solubility: as restated in Conclusions
[3] = Severe acute respiratory syndrome coronavirus 2, Calu‐3 cells infected with SARS‐CoV‐2, concentration required to reduce viral cytopathic effect by 50%, read-out: EC50

## O=C(Nc1cc(Cl)cc(Cl)c1)Nc1cccc(C(F)(F)F)c1 [Compound 1, 1‐(3,5‐dichlorophenyl)‐3‐(3‐(trifluoromethyl)phenyl)urea]
[1]
  RA (residual activity of RdRp): 45%

## FC(F)(F)c1ccc2nc(-c3nc4cc(Cl)c(Cl)cc4[nH]3)[nH]c2c1 [Compound 2]
[1]
  RA (residual activity of RdRp): 43 ± 6%

## O=C(Nc1cccc(C(F)(F)F)c1)Nc1ccc(Cl)cc1Cl [Compound 9, 1‐(2,4‐Dichlorophenyl)‐3‐(3‐(Trifluoromethyl)Phenyl)Urea]
[2]
  remaining activity at 10 µM: 64 ± 12%
In vitro
  CC50 at 3 days: 6.9 ± 0.94 µM
SARS‐CoV‐2; [3]
  EC50: > 6.9 µM
Kinetic solubility
  solubility kinetic: < 2 µM

## O=C(Nc1cccc(C(F)(F)F)c1)Nc1c(Cl)cccc1Cl [Compound 10, 1‐(2,6‐Dichlorophenyl)‐3‐(3‐(Trifluoromethyl)Phenyl)Urea]
[2]
  remaining activity at 10 µM: 100%

## O=C(Nc1ccc(C(F)(F)F)cc1)Nc1cc(Cl)cc(Cl)c1 [Compound 13, 1‐(3,5‐Dichlorophenyl)‐3‐(4‐(Trifluoromethyl)Phenyl)Urea]
[2]
  remaining activity at 10 µM: 34 ± 14%
In vitro
  CC50 at 3 days: 0.29 ± 0.03 µM
SARS‐CoV‐2; [3]
  EC50: > 0.29 µM
Kinetic solubility; kinetic from dmso stock
  solubility kinetic: < 2.1 µM

## O=C(Nc1cc(Cl)cc(Cl)c1)Nc1ccccc1C(F)(F)F [Compound 14, 1‐(3,5‐Dichlorophenyl)‐3‐(2‐(Trifluoromethyl)Phenyl)Urea]
[2]
  remaining activity at 10 µM: 100%

## O=C(Nc1ccc(C(F)(F)F)nc1)Nc1cc(Cl)cc(Cl)c1 [Compound 15, 1‐(3,5‐Dichlorophenyl)‐3‐(6‐(Trifluoromethyl)Pyridin‐3‐Yl)Urea]
[2]
  remaining activity at 10 µM: 35 ± 9%
In vitro
  CC50 at 3 days: 1.3 ± 0.13 µM
SARS‐CoV‐2; [3]
  EC50: > 1.3 µM

## O=C(Nc1cc(Cl)cc(Cl)c1)Nc1ccc(C(F)(F)F)cn1 [Compound 16, 1‐(3,5‐Dichlorophenyl)‐3‐(5‐(Trifluoromethyl)Pyridin‐2‐Yl)Urea]
[2]
  remaining activity at 10 µM: 100%

## O=C(Nc1cc(Cl)cc(Cl)c1)Nc1ccc(C(F)(F)F)nn1 [Compound 17, 1‐(3,5‐Dichlorophenyl)‐3‐(6‐(Trifluoromethyl)Pyridazin‐3‐Yl)Urea]
[2]
  remaining activity at 10 µM: 68 ± 9%

## O=C(Nc1cnc(C(F)(F)F)nc1)Nc1cc(Cl)cc(Cl)c1 [Compound 18, 1‐(3,5‐Dichlorophenyl)‐3‐(2‐(Trifluoromethyl)Pyrimid‐5‐Yl)Urea]
[2]
  effect in combination with remdesivir: potentiates the effect of remdesivir
  remaining activity at 10 µM: 42 ± 10%
[2]; versus ATP, enzymatic study
  mode of inhibition: competitive inhibitor of ATP
In vitro
  CC50 at 3 days: 1.1 ± 0.11 µM
SARS‐CoV‐2; [3]
  EC50: > 1.1 µM
Kinetic solubility
  kinetic solubility: 27 µM/L
Kinetic solubility; kinetic from dmso stock
  solubility kinetic: 27 ± 6 µM (≈ 9.48 µg/mL)

## O=C(Nc1cc(Cl)cc(Cl)c1)Nc1cnc(C(F)(F)F)cn1 [Compound 19, 1‐(3,5‐Dichlorophenyl)‐3‐(5‐(Trifluoromethyl)Pyrazin‐2‐Yl)Urea]
[2]
  remaining activity at 10 µM: 75 ± 8%

## NC(=O)c1ccc(NC(=O)Nc2cc(Cl)cc(Cl)c2)cc1C(F)(F)F [Compound 24, 4‐(3‐(3,5‐Dichlorophenyl)Ureido)‐2‐(Trifluoromethyl)Benzamide]
[2]
  remaining activity at 10 µM: ~65%
In vitro
  CC50 at 3 days: 14 ± 1 µM
SARS‐CoV‐2; [3]
  EC50: > 14 µM
Kinetic solubility
  kinetic solubility: 32.5 µM L^−1
Kinetic solubility; kinetic from dmso stock
  solubility kinetic: 32.5 ± 0.8 µM (≈ 12.7 µg/mL)

## NC(=O)c1ccc(C(F)(F)F)cc1NC(=O)Nc1cc(Cl)cc(Cl)c1 [Compound 25, 2‐(3‐(3,5‐Dichlorophenyl)Ureido)‐4‐(Trifluoromethyl)Benzamide]
[2]
  remaining activity at 10 µM: 100%

## NC(=O)c1c(Cl)cc(Cl)cc1NC(=O)Nc1cccc(C(F)(F)F)c1 [Compound 28, 2,4‐Dichloro‐6‐(3‐(3‐(Trifluoromethyl)Phenyl)Ureido)Benzamide]
[2]
  remaining activity at 10 µM: 100%

## Cl.O=C(Nc1cc(Cl)cc(Cl)c1)Nc1ccc(CN2CCCC2)c(C(F)(F)F)c1 [Compound 38, 1‐(3,5‐Dichlorophenyl)‐3‐(4‐(Pyrrolidin‐1‐Ylmethyl)‐3‐(Trifluoromethyl)Phenyl)Urea Hydrochloride]
[2]
  remaining activity at 10 µM: 46 ± 2%
In vitro
  CC50 at 3 days: 19 ± 1 µM
SARS‐CoV‐2; [3]
  EC50: > 19 µM
Kinetic solubility; kinetic from dmso stock
  solubility kinetic: < 2 µM

## Cl.O=C(Nc1cc(Cl)cc(Cl)c1)Nc1ccc(CN2CCOCC2)c(C(F)(F)F)c1 [Compound 39, 1‐(3,5‐Dichlorophenyl)‐3‐(4‐(Morpholinomethyl)‐3‐(Trifluoromethyl)Phenyl)Urea Hydrochloride]
[2]
  remaining activity at 10 µM: 36 ± 7%
In vitro
  CC50 at 3 days: 8.4 ± 1.1 µM
SARS‐CoV‐2; [3]
  EC50: > 8.4 µM
Kinetic solubility
  kinetic solubility: 4.2 µM L^−1
Kinetic solubility; kinetic from dmso stock
  solubility kinetic: 4.2 ± 0.3 µM

## CN1CCN(Cc2ccc(NC(=O)Nc3cc(Cl)cc(Cl)c3)cc2C(F)(F)F)CC1.Cl [Compound 40, 1‐(3,5‐Dichlorophenyl)‐3‐(4‐((4‐Methylpiperazin‐1‐Yl)Methyl)‐3‐(Trifluoromethyl)Phenyl)Urea Hydrochloride]
[2]
  remaining activity at 10 µM: ~65%
In vitro
  CC50 at 3 days: 13 ± 0.8 µM
SARS‐CoV‐2; [3]
  EC50: > 13 µM
Kinetic solubility
  kinetic solubility: 43.5 µM L^−1
Kinetic solubility; kinetic from dmso stock
  solubility kinetic: 43.5 ± 0.8 µM

## NCc1ccc(NC(=O)Nc2cc(Cl)cc(Cl)c2)cc1C(F)(F)F [Compound 41, 1‐(4‐(Aminomethyl)‐3‐(Trifluoromethyl)Phenyl)‐3‐(3,5‐Dichlorophenyl)Urea Hydrochloride]
[2]
  remaining activity at 10 µM: 78 ± 5%

## Cl.O=C(Nc1cc(Cl)cc(Cl)c1)Nc1ccc(C(F)(F)F)c(CN2CCCC2)c1 [Compound 46, 1‐(3,5‐Dichlorophenyl)‐3‐(3‐(Pyrrolidin‐1‐Ylmethyl)‐4‐(Trifluoromethyl)Phenyl)Urea Hydrochloride]
[2]
  remaining activity at 10 µM: 67 ± 7%
In vitro
  CC50 at 3 days: ~15 µM
SARS‐CoV‐2; [3]
  EC50: > 15 µM
Kinetic solubility; kinetic from dmso stock
  solubility kinetic: 11.9 ± 0.4 µM

## Cl.O=C(Nc1cc(Cl)cc(Cl)c1)Nc1ccc(C(F)(F)F)c(CN2CCOCC2)c1 [Compound 47, 1‐(3,5‐Dichlorophenyl)‐3‐(3‐(Morpholinomethyl)‐4‐(Trifluoromethyl)Phenyl)Urea Hydrochloride]
[2]
  remaining activity at 10 µM: 65 ± 5%
In vitro
  CC50 at 3 days: 5.3 ± 0.48 µM
SARS‐CoV‐2; [3]
  EC50: > 5.3 µM
Kinetic solubility; kinetic from dmso stock
  solubility kinetic: < 2 µM

## CN1CCN(Cc2cc(NC(=O)Nc3cc(Cl)cc(Cl)c3)ccc2C(F)(F)F)CC1 [Compound 48, 1‐(3,5‐Dichlorophenyl)‐3‐(3‐((4‐Methylpiperazin‐1‐Yl)Methyl)‐4‐(Trifluoromethyl)Phenyl)Urea Hydrochloride]
[2]
  remaining activity at 10 µM: 100%

## CN1CCN(Cc2c(Cl)cc(NC(=O)Nc3cccc(C(F)(F)F)c3)cc2Cl)CC1 [Compound 54, 1‐(3,5‐Dichloro‐4‐((4‐Methylpiperazin‐1‐Yl)Methyl)Phenyl)‐3‐(3‐(Trifluoromethyl)Phenyl)Urea Hydrochloride]
[2]
  remaining activity at 10 µM: 79 ± 5%

## COCCNCc1ccc(NC(=O)Nc2cc(Cl)cc(Cl)c2)cc1C(F)(F)F [Compound 58, 1‐(3,5‐Dichlorophenyl)‐3‐(4‐(((2‐Methoxyethyl)Amino)Methyl)‐3‐(Trifluoromethyl)Phenyl)Urea Hydrochloride]
[2]
  remaining activity at 10 µM: 100%

## O=C(Nc1cc(Cl)cc(Cl)c1)Nc1ccc(CNCCO)c(C(F)(F)F)c1 [Compound 59, 1‐(3,5‐Dichlorophenyl)‐3‐(4‐(((2‐Hydroxyethyl)Amino)Methyl)‐3‐(Trifluoromethyl)Phenyl)Urea Hydrochloride]
[2]
  remaining activity at 10 µM: 76 ± 11%

## COC(=O)CNCc1ccc(NC(=O)Nc2cc(Cl)cc(Cl)c2)cc1C(F)(F)F.Cl [Compound 61, Methyl (4‐(3‐(3,5‐Dichlorophenyl)Ureido)‐2‐(Trifluoromethyl)Benzyl)Glycinate Hydrochloride]
[2]
  remaining activity at 10 µM: 43 ± 8%
In vitro
  CC50 at 3 days: 8.4 ± 0.46 µM
SARS‐CoV‐2; [3]
  EC50: > 8.4 µM
Kinetic solubility
  kinetic solubility: 21 µM L^−1
Kinetic solubility; kinetic from dmso stock
  solubility kinetic: 7 ± 0.6 µM
Kinetic solubility; relative to compound 39
  increase in kinetic solubility compared with compound 39: 1.7 fold

## O=C(O)CNCc1ccc(NC(=O)Nc2cc(Cl)cc(Cl)c2)cc1C(F)(F)F [Compound 62, Lithium (4‐(3‐(3,5‐Dichlorophenyl)Ureido)‐2‐(Trifluoromethyl)Benzyl)Glycinate]
[2]
  remaining activity at 10 µM: 70 ± 10%

## Cl.O=C(Nc1cc(Cl)cc(Cl)c1)Nc1ccc(CN2CCS(=O)(=O)CC2)c(C(F)(F)F)c1 [Compound 68, 1‐(3,5‐Dichlorophenyl)‐3‐(4‐((1,1‐Dioxidothiomorpholino)Methyl)‐3‐(Trifluoromethyl)Phenyl)Urea Hydrochloride]
[2]
  remaining activity at 10 µM: 37 ± 5%
In vitro
  CC50 at 3 days: 5.9 ± 0.51 µM
SARS‐CoV‐2; [3]
  EC50: > 5.9 µM
Kinetic solubility; kinetic from dmso stock
  solubility kinetic: 2.57 ± 0.04 µM

## COC(=O)C1CN(Cc2ccc(NC(=O)Nc3cc(Cl)cc(Cl)c3)cc2C(F)(F)F)CCO1.Cl (stereo not drawn) [Compound 69, Methyl 4‐(4‐(3‐(3,5‐Dichlorophenyl)Ureido)‐2‐(Trifluoromethyl)Benzyl)Morpholine‐2‐Carboxylate Hydrochloride]
[2]
  remaining activity at 10 µM: 42 ± 4%
In vitro
  CC50 at 3 days: 34 ± 5.6 µM
SARS‐CoV‐2; [3]
  EC50: > 34 µM
Kinetic solubility; kinetic from dmso stock
  solubility kinetic: < 2 µM

## Cl.O=C1CN(Cc2ccc(NC(=O)Nc3cc(Cl)cc(Cl)c3)cc2C(F)(F)F)CCN1 [Compound 70, 1‐(3,5‐Dichlorophenyl)‐3‐(4‐((3‐Oxopiperazin‐1‐Yl)Methyl)‐3‐(Trifluoromethyl)Phenyl)Urea Hydrochloride]
[2]
  remaining activity at 10 µM: 63 ± 7%
In vitro
  CC50 at 3 days: 9.5 ± 0.28 µM
SARS‐CoV‐2; [3]
  EC50: > 9.5 µM
Kinetic solubility; kinetic from dmso stock
  solubility kinetic: 11.2 ± 0.07 µM

## O=C(Nc1cc(Cl)cc(Cl)c1)Nc1ccc(CN2CCOC(C(=O)[O-])C2)c(C(F)(F)F)c1.[Li+] (stereo not drawn) [Compound 71, Lithium 4‐(4‐(3‐(3,5‐Dichlorophenyl)Ureido)‐2‐(Trifluoromethyl)Benzyl)Morpholine‐2‐Carboxylate]
[2]
  remaining activity at 10 µM: ~65%
In vitro
  CC50 at 3 days: 32 ± 0.77 µM
SARS‐CoV‐2; Severe acute respiratory syndrome coronavirus 2, Calu-3
  EC50: > 32 µM
Kinetic solubility
  kinetic solubility: 71 µM L^−1
Kinetic solubility; kinetic from dmso stock
  solubility kinetic: 71 ± 1 µM

## Cl.NC(=O)C1CN(Cc2ccc(NC(=O)Nc3cc(Cl)cc(Cl)c3)cc2C(F)(F)F)CCO1 (stereo not drawn) [Compound 72, 4‐(4‐(3‐(3,5‐Dichlorophenyl)Ureido)‐2‐(Trifluoromethyl)Benzyl)Morpholine‐2‐Carboxamide Hydrochloride]
[2]
  remaining activity at 10 µM: 52 ± 5%
In vitro
  CC50 at 3 days: 12 ± 0.51 µM
SARS‐CoV‐2; [3]
  EC50: > 12 µM
Kinetic solubility; kinetic from dmso stock
  solubility kinetic: 4.7 ± 0.1 µM
